Source: patent US8815872B2, “Macrocyclics pyrimidines as aurora kinase inhibitors” (Merck Patent GmbH, priority 2008, dated 2014)
“And” between values parts separate entries of the source, which are not always exact repeats. Identical values can stand only once.

What was measured:
Format in all cases: biochemical
CK1-delta = biological target: T1, CK1-delta (Homo sapiens, UniProt P48730); assay: Other kinases, inhibition at 1 μM (Table 3)
T1 construct: purchased Caliper Life Sciences
Experimental: (§1) The Aurora and other kinase assays described here were performed on two Caliper Life Sciences systems, the LC3000 and the Desktop Profiler. These provide data on enzyme activity via measurement of the relative amounts of phosphorylated or unphosphorylated fluorescently labelled substrate peptide at the end of an enzymatic reaction. These different states of peptide are resolved by applying a potential difference across the sample. The presence of a charged phosphate group on the product (as opposed to the substrate) causes a different peptide mobility between the two peptides. This is visualized by excitation of a fluorescent label on the substrate and product peptides and represented as peaks within the analysis software.
(§2) The Desktop Profiler utilizes the same principal as the LC 3000 for calculating percentage conversion of a substrate to product. Caliper Life Sciences provided proprietary flash frozen pre-made 384 well plates containing selected kinases. Each column in the 384 well plate contained a particular selected kinase. A second plate, the ‘substrate plate’ contained a mix of fluorescently labeled peptide substrate and ATP. These were arranged in columns so that transfer for substrate plate to enzyme plate provided the correct enzyme with the correct substrate/ATP concentration.
(§3) Compounds were added to a thawed enzyme plate in the desired format, in single concentrations. Reactions were initiated by transfer of the ubstrate/ATP mix from the substrate plate. The enzyme plate was incubated for 90 mins at 25 °C. The reaction was stopped by addition of […] of Stop Buffer (100 mM HEPES pH 7.5, 0.015% Brij-35, 10 mM EDTA (Sigma, E7889)).
(§4) Plates were read in a manner identical to that of the LC3000, and the ratio between substrate and product peaks provided the activity of the enzyme in that well. This was best represented by a plate heat map which colors each well by percent inhibition as compared to positive and negative controls (no inhibitors and no ATP respectively).

PKA = biological target: T2, PKA (Homo sapiens, UniProt P17612); assay: Other kinases, inhibition at 1 μM (Table 3)
T2 construct: purchased Caliper Life Sciences
Experimental: as §1, §2, §3, §4

EF2K = biological target: T3, EF2K (Homo sapiens, UniProt O00418); assay: Other kinases, inhibition at 1 μM (Table 3)
T3 construct: purchased Caliper Life Sciences
Experimental: as §1, §2, §3, §4

SAPK4 = biological target: T4, SAPK4 (Homo sapiens, UniProt O15264); assay: Other kinases, inhibition at 1 μM (Table 3)
T4 construct: purchased Caliper Life Sciences
Experimental: as §1, §2, §3, §4

PAK6 = biological target: T5, PAK6 (Homo sapiens, UniProt Q9NQU5); assay: Other kinases, inhibition at 1 μM (Table 3)
T5 construct: purchased Caliper Life Sciences
Experimental: as §1, §2, §3, §4

SAPK3 = biological target: T6, SAPK3 (Homo sapiens, UniProt P53778); assay: Other kinases, inhibition at 1 μM (Table 3)
T6 construct: purchased Caliper Life Sciences
Experimental: as §1, §2, §3, §4

GSK3-beta = biological target: T7, GSK3-beta (Homo sapiens, UniProt P49841); assay: Other kinases, inhibition at 1 μM (Table 3)
T7 construct: purchased Caliper Life Sciences
Experimental: as §1, §2, §3, §4

MNK-2-alpha = biological target: T8, MNK-2-alpha (Homo sapiens, UniProt Q9HBH9); assay: Other kinases, inhibition at 1 μM (Table 3)
T8 construct: purchased Caliper Life Sciences
Experimental: as §1, §2, §3, §4

IGF1-R = biological target: T9, IGF1-R (Homo sapiens, UniProt P08069); assay: Other kinases, inhibition at 1 μM (Table 3)
T9 construct: purchased Caliper Life Sciences
Experimental: as §1, §2, §3, §4

VEGFR = assay: Other kinases, inhibition at 1 μM (Table 3)
Experimental: as §1, §2, §3, §4

S6K1 = biological target: T10, S6K1 (Homo sapiens, UniProt P23443); assay: Other kinases, inhibition at 1 μM (Table 3)
T10 construct: purchased Caliper Life Sciences
Experimental: as §1, §2, §3, §4

LCK = biological target: T11, LCK (Homo sapiens, UniProt P06239); assay: Other kinases, inhibition at 1 μM (Table 3)
T11 construct: purchased Caliper Life Sciences
Experimental: as §1, §2, §3, §4

CAMKKb = biological target: T12, CAMKKb (Homo sapiens, UniProt Q96RR4); assay: Other kinases, inhibition at 1 μM (Table 3)
T12 construct: purchased Caliper Life Sciences
T12 sequence (Q96RR4 whole entry, species assumed): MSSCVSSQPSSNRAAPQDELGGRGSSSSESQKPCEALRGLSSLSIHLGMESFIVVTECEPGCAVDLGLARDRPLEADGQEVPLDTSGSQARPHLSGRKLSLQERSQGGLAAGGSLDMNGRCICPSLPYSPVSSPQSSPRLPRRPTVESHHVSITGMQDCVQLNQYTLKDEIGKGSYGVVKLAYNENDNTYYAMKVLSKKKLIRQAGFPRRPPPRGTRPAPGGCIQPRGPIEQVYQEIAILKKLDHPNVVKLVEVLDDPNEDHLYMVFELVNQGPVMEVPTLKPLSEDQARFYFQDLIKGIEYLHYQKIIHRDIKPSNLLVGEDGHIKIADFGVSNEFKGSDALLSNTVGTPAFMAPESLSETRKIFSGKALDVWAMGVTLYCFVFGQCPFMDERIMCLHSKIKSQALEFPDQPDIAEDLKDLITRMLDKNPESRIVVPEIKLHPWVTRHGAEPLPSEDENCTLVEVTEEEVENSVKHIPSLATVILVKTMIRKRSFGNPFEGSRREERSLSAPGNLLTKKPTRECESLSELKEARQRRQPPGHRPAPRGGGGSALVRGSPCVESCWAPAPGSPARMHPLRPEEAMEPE
Experimental: as §1, §2, §3, §4

MAPK2 = biological target: T13, MAPK2 (Homo sapiens, UniProt P28482); assay: Other kinases, inhibition at 1 μM (Table 3)
T13 construct: purchased Caliper Life Sciences
T13 sequence (P28482 whole entry): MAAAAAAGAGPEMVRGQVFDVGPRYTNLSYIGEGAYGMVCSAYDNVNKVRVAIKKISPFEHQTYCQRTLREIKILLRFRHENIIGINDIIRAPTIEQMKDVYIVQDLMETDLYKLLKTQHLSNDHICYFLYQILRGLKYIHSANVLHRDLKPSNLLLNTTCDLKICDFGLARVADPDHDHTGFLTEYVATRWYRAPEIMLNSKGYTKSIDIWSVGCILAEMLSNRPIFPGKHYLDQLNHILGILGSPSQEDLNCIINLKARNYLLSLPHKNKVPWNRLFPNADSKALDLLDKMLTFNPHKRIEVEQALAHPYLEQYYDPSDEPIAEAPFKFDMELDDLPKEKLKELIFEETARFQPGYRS
Experimental: as §1, §2, §3, §4

SRPK1 = biological target: T14, SRPK1 (Homo sapiens, UniProt Q96SB4); assay: Other kinases, inhibition at 1 μM (Table 3)
T14 construct: purchased Caliper Life Sciences
Experimental: as §1, §2, §3, §4

JNK1-alpha-1 = biological target: T15, JNK1-alpha-1 (Homo sapiens, UniProt P45983); assay: Other kinases, inhibition at 1 μM (Table 3)
T15 construct: purchased Caliper Life Sciences
Experimental: as §1, §2, §3, §4

PLK1 = biological target: T16, PLK1 (Homo sapiens, UniProt P53350); assay: Other kinases, inhibition at 1 μM (Table 3)
T16 construct: purchased Caliper Life Sciences
T16 sequence (P53350 whole entry, species assumed): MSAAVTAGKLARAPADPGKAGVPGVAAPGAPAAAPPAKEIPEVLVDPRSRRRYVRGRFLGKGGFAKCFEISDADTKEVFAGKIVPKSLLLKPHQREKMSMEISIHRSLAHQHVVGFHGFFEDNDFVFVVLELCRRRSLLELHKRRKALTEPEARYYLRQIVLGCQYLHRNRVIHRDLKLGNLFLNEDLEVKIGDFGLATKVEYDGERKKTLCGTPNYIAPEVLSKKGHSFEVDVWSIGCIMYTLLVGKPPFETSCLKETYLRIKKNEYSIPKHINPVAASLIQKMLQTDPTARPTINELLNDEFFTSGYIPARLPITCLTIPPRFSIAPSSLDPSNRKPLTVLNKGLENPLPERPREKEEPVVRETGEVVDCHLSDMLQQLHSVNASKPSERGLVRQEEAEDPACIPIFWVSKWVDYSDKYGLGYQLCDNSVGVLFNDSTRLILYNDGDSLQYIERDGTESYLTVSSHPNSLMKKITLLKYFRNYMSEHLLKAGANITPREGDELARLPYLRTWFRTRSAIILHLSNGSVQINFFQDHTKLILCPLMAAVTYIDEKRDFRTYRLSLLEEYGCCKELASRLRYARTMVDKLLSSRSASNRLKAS
Experimental: as §1, §2, §3, §4

DYRK1-alpha = biological target: T17, DYRK1-alpha (Homo sapiens, UniProt Q13627); assay: Other kinases, inhibition at 1 μM (Table 3)
T17 construct: purchased Caliper Life Sciences
Experimental: as §1, §2, §3, §4

CAMKI = biological target: T18, CAMKI (Homo sapiens, UniProt Q14012); assay: Other kinases, inhibition at 1 μM (Table 3)
T18 construct: purchased Caliper Life Sciences
T18 sequence (Q14012 whole entry, species assumed): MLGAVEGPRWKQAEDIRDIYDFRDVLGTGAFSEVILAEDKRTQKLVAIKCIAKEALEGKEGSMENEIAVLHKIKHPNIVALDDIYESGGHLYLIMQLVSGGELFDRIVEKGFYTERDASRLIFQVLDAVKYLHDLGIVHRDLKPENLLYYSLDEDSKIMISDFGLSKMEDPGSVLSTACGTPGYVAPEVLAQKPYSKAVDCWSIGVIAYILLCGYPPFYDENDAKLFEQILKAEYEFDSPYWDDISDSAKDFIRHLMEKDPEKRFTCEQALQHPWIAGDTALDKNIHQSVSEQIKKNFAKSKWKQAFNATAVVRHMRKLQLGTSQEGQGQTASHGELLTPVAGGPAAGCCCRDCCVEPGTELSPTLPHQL
Experimental: as §1, §2, §3, §4

smMLCK = assay: Other kinases, inhibition at 1 μM (Table 3)
Experimental: as §1, §2, §3, §4

CHK2 = biological target: T19, CHK2 (Homo sapiens, UniProt O96017); assay: Other kinases, inhibition at 1 μM (Table 3)
T19 construct: purchased Caliper Life Sciences
T19 sequence (O96017 whole entry, species assumed): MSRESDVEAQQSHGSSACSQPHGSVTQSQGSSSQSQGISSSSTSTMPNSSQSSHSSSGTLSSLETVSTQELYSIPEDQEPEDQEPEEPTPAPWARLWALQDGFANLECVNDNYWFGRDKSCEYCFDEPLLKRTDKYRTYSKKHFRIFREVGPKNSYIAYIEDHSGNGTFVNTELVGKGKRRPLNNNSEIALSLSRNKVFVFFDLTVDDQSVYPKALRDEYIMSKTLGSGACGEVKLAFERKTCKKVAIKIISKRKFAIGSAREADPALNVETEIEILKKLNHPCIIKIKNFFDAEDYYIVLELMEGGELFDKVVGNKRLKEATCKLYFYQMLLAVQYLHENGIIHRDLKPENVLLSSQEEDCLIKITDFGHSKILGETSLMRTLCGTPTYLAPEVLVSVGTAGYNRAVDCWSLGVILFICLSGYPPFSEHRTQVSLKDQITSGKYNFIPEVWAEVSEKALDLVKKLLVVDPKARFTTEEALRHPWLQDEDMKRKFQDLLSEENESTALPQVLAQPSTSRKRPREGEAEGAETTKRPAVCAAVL
Experimental: as §1, §2, §3, §4

EphA2 = biological target: T20, EphA2 (Homo sapiens, UniProt P29317); assay: Other kinases, inhibition at 1 μM (Table 3)
T20 construct: purchased Caliper Life Sciences
T20 sequence (P29317 24-976, species assumed): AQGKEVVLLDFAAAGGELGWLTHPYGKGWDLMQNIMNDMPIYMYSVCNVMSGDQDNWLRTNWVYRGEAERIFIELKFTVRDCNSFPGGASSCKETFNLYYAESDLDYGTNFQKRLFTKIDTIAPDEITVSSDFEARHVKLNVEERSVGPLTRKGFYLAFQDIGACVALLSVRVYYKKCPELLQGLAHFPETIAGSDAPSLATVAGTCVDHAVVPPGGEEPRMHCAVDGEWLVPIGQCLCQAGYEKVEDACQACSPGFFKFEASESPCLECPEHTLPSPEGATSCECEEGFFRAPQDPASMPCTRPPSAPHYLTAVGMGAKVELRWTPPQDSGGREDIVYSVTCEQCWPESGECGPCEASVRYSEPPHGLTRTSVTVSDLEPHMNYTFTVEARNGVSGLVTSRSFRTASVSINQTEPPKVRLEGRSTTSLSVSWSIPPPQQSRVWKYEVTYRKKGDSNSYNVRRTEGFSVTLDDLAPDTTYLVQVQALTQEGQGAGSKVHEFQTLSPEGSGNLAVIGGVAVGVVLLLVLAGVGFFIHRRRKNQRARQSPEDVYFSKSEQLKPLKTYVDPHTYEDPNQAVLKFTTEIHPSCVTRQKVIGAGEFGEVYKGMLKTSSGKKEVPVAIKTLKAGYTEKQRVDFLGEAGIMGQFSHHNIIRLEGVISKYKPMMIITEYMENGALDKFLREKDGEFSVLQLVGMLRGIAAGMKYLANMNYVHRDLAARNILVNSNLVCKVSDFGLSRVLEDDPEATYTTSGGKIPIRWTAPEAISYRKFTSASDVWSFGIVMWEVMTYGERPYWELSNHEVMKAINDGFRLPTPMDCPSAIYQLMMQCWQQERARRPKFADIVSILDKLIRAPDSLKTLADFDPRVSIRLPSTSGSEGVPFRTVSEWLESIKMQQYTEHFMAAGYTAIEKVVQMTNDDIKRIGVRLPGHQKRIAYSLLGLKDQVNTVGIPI
Experimental: as §1, §2, §3, §4

SGK = biological target: T21, SGK (Homo sapiens, UniProt O00141); assay: Other kinases, inhibition at 1 μM (Table 3)
T21 construct: purchased Caliper Life Sciences
T21 sequence (O00141 whole entry, species assumed): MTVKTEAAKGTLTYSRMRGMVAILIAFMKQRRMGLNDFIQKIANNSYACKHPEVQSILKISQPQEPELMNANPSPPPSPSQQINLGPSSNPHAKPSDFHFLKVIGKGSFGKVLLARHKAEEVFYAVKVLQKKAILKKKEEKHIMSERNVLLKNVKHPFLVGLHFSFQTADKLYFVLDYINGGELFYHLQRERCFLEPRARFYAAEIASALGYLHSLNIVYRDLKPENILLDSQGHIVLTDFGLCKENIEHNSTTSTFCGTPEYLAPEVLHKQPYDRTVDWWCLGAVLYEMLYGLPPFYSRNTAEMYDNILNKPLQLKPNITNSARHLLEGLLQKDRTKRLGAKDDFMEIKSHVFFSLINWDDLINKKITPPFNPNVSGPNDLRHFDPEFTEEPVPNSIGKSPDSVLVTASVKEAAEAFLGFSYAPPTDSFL
Experimental: as §1, §2, §3, §4

TBK1 = biological target: T22, TBK1 (Homo sapiens, UniProt Q9UHD2); assay: Other kinases, inhibition at 1 μM (Table 3)
T22 construct: purchased Caliper Life Sciences
Experimental: as §1, §2, §3, §4

EphB3 = biological target: T23, EphB3 (Homo sapiens, UniProt P54753); assay: Other kinases, inhibition at 1 μM (Table 3)
T23 construct: purchased Caliper Life Sciences
Experimental: as §1, §2, §3, §4

IRAK4(h) = biological target: T24, IRAK4(h) (Homo sapiens, UniProt Q9NWZ3); assay: Inhibition of other kinases IC50 (Table 2)
T24 construct: purchased Caliper Life Sciences
T24 sequence (Q9NWZ3 1-460): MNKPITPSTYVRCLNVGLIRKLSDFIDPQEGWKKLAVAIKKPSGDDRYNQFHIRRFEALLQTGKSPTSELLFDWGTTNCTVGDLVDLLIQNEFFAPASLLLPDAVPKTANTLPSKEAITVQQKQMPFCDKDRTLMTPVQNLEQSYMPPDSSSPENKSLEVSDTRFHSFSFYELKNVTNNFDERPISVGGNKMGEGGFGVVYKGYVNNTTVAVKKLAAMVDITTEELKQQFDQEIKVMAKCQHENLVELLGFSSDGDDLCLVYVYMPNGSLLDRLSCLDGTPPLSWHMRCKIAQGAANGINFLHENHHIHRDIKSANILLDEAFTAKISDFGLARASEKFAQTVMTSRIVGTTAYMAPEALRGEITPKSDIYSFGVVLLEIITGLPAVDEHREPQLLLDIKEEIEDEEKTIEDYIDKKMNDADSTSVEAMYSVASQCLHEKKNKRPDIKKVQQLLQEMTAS
Experimental: as §1

Tie2(h) = biological target: T25, Tie2(h) (Homo sapiens, UniProt Q02763); assay: Inhibition of other kinases IC50 (Table 2)
T25 construct: purchased Caliper Life Sciences
T25 sequence (Q02763 23-1124): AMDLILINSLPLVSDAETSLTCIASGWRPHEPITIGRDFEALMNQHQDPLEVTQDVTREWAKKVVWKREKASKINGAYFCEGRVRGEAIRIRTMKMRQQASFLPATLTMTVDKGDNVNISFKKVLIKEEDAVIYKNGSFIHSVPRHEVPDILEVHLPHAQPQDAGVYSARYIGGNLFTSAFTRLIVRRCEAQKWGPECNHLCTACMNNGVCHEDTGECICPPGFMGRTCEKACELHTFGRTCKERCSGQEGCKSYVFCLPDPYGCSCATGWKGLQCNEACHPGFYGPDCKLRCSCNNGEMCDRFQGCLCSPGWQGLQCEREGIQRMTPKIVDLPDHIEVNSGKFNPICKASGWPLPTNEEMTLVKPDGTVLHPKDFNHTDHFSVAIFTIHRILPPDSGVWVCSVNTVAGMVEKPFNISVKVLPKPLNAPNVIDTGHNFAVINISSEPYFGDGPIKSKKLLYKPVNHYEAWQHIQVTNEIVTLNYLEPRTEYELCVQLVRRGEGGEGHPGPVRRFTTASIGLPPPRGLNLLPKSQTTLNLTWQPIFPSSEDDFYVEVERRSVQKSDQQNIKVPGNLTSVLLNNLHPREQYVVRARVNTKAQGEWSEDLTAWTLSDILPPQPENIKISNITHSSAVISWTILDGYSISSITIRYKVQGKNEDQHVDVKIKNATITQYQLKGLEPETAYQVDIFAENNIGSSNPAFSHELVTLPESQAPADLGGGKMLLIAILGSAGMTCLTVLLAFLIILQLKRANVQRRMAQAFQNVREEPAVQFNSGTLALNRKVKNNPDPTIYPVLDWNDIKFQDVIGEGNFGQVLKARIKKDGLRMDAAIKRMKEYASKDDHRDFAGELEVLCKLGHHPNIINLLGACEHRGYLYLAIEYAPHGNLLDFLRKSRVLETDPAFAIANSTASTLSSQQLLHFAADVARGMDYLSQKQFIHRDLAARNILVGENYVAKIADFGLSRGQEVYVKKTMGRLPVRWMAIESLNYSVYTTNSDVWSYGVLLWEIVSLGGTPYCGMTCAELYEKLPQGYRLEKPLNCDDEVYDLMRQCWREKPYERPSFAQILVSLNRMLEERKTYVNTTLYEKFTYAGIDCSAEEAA
Experimental: as §1

Ret(h) = biological target: T26, Ret(h) (Homo sapiens, UniProt P07949); assay: Inhibition of other kinases IC50 (Table 2)
T26 construct: purchased Caliper Life Sciences
Experimental: as §1

| Structure (SMILES) | % inhibition CK1-delta (CK1-delta) | % inhibition PKA (PKA) | inhibition at 1 µM (EF2K) | inhibition at 1 µM (SAPK4) | % inhibition PAK6 (PAK6) | inhibition at 1 µM (SAPK3) | inhibition at 1 µM (GSK3-beta) | % inhibition MNK-2-alpha (MNK-2-alpha) | inhibition at 1 µM (IGF1-R) | % inhibition VEGFR (VEGFR) | inhibition at 1 µM (S6K1) | inhibition at 1 µM (LCK) | % inhibition CAMKKb (CAMKKb) | % inhibition MAPK2 (MAPK2) | inhibition at 1 µM (SRPK1) | inhibition at 1 µM (JNK1-alpha-1) | % inhibition PLK1 (PLK1) | inhibition at 1 µM (DYRK1-alpha) | % inhibition CAMKI (CAMKI) | % inhibition smMLCK (smMLCK) | other results |
| --- | --- | --- | --- | --- | --- | --- | --- | --- | --- | --- | --- | --- | --- | --- | --- | --- | --- | --- | --- | --- | --- |
| NC(=O)[C@H]1[C@H]2C[C@H]3[C@H]1Nc1nc(ncc1F)Nc1cccc(c1)CSS[C@@H]3C2 [Example 10] | 92% | 72% | 62% | 44% | 81% | 72% | 19% | 82% | 2% | 15% | 94% | 14% | 73% | 90% | 65% | 14% | 4% and 12% | 83% | 73% | 39% | % inhibition CHK2 (CHK2): 12%; inhibition at 1 µM (EphA2): 25%; inhibition at 1 µM (SGK): 82%; inhibition at 1 µM (TBK1): 100%; inhibition at 1 µM (EphB3): 4% |
| Fc1cnc2nc1NC1CCCC(C1)OC/C=C\COc1cccc(c1)N2 (single isomer, unassigned) [Example 33, (16Z)-6-fluoro-14,19-dioxa-2,4,8,26-tetraazatetracyclo[18.3.1.1˜3,7˜0.1˜9,13˜]hexacosa-1(24),3(26),4,6,16,20,22-heptaene] | 85% | 82% | 78% | 79% | 90% | 87% | 57% | 81% | 82% | 49% | 74% | 54% | 81% | 79% | 83% | 75% | 63% and 92% | 86% | 93% | 92% | % inhibition CHK2 (CHK2): 77%; inhibition at 1 µM (EphA2): 81%; inhibition at 1 µM (SGK): 87%; inhibition at 1 µM (TBK1): 97%; inhibition at 1 µM (EphB3): 54% |
| NC(=O)[C@H]1[C@H]2C[C@H]3[C@H]1Nc1nc(ncc1F)Nc1cccc(c1)OCCS[C@@H]3C2 [Example 20] | – | – | – | – | – | – | – | – | – | – | – | – | – | – | – | – | – | – | – | – | IC50 (IRAK4(h)): 101 to 1000 nM; IC50 (Tie2(h)): 101 to 1000 nM; IC50 (Ret(h)): 101 to 1000 nM |
| NC(=O)[C@H]1[C@H]2C[C@H]3[C@H]1Nc1nc(ncc1F)Nc1cccc(c1)NC(=O)CS[C@@H]3C2 [Example 27] | – | – | – | – | – | – | – | – | – | – | – | – | – | – | – | – | – | – | – | – | IC50 (IRAK4(h)): 1 to 100 nM; IC50 (Tie2(h)): 101 to 1000 nM; IC50 (Ret(h)): 1 to 100 nM |
